According to patent US12077503B2, “Substituted cyclic amides and their use as herbicides” (FMC CORPORATION, priority 2015, dated 2024):

How the values were obtained:
Type in all cases: in vivo
Kochia (Kochia scoparia) [1] = experiment: Test A preemergence; details: Bassia scoparia, pre-emergence, 240 h, Preemergence
Summary of the method: (§1)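 Seeded soil received test chemicals as a preemergence directed spray, and seedlings at one to two leaves, 2–10 cm tall, received them postemergence, in a non-phytotoxic, surfactant-containing solvent mixture. Pots were held in a greenhouse for approximately 10 d, then rated for injury from 0, no effect, to 100, complete control.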

[2] = system: barnyardgrass (Echinochloa crus-galli); experiment: Test A preemergence; details: Echinochloa crus-galli, pre-emergence, 240 h, Preemergence
Summary of the method: as §1

[3] = system: giant foxtail (Setaria faberii); experiment: Test A preemergence; details: Setaria faberi, pre-emergence, 240 h, Preemergence
Summary of the method: as §1

[4] = system: pigweed (Amaranthus retroflexus); experiment: Test A preemergence; details: Amaranthus retroflexus, pre-emergence, 240 h, Preemergence
[5] = system: ragweed (common ragweed, Ambrosia elatior); experiment: Test A preemergence; details: Ambrosia artemisiifolia, pre-emergence, 240 h, Preemergence
Summary of the method: as §1

[6] = system: ryegrass, Italian (Italian ryegrass, Lolium multiflorum); experiment: Test A preemergence; details: Lolium multiflorum, pre-emergence, 240 h, Preemergence
Summary of the method: as §1

[7] = system: Galium (catchweed bedstraw, Galium aparine); experiment: Test A postemergence; details: Galium, post-emergence, 240 h, Postemergence, read-out: Plant response rating, Galium
Summary of the method: as §1

Kochia (Kochia scoparia) [8] = experiment: Test A postemergence; details: Bassia scoparia, post-emergence, 240 h, Postemergence, read-out: Plant response rating, Kochia
Summary of the method: as §1

[9] = system: barnyardgrass (Echinochloa crus-galli); experiment: Test A postemergence; details: Echinochloa crus-galli, post-emergence, 240 h, Postemergence, read-out: Plant response rating, Barnyardgrass
Summary of the method: as §1

[10] = system: blackgrass (Alopecurus myosuroides); experiment: Test A postemergence; details: Alopecurus myosuroides, post-emergence, 240 h, Postemergence, read-out: Plant response rating, Blackgrass
Summary of the method: as §1

corn (Zea mays) = experiment: Test A postemergence; details: Zea mays, post-emergence, 240 h, Postemergence
Summary of the method: as §1

[11] = system: giant foxtail (Setaria faberii); experiment: Test A postemergence; details: Setaria faberi, post-emergence, 240 h, Postemergence, read-out: Plant response rating, Foxtail, Giant
Summary of the method: as §1

[12] = system: pigweed (Amaranthus retroflexus); experiment: Test A postemergence; details: Amaranthus retroflexus, post-emergence, 240 h, Postemergence, read-out: Plant response rating, Pigweed
Summary of the method: as §1

[13] = system: ragweed (common ragweed, Ambrosia elatior); experiment: Test A postemergence; details: Ambrosia artemisiifolia, post-emergence, 240 h, Postemergence, read-out: Plant response rating, Ragweed
Summary of the method: as §1

[14] = system: ryegrass, Italian (Italian ryegrass, Lolium multiflorum); experiment: Test A postemergence; details: Lolium multiflorum, post-emergence, 240 h, Postemergence, read-out: Plant response rating, Ryegrass, Italian
Summary of the method: as §1

[15] = system: wheat (Triticum aestivum); experiment: Test A postemergence; details: Triticum aestivum, post-emergence, 240 h, Postemergence, read-out: Plant response rating, Wheat
Summary of the method: as §1

[16] = system: barnyardgrass (Echinochloa crus-galli); experiment: Test B flooded paddy test; details: Echinochloa crus-galli, 250 g ai/ha, Flood; 0 to 100 scale where 0 is no effect and 100 is complete control; read-out: Barnyardgrass plant response rating
Summary of the method: (§2)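 Evaluation by eye, against controls, occurred 13–15 d post-treatment in a greenhouse, using a 0 (no effect) to 100 (complete control) scale. Application was into the paddy water, 3 cm deep over the soil, on 2-leaf plants.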

[17] = system: ducksalad (Heteranthera limosa); experiment: Test B flooded paddy test; details: Heteranthera limosa, 250 g ai/ha, Flood; 0 to 100 scale where 0 is no effect and 100 is complete control; read-out: Ducksalad plant response rating
Summary of the method: as §2

rice (Oryra sativa) = experiment: Test B flooded paddy test; details: Oryza sativa, 250 g ai/ha, Flood; 0 to 100 scale where 0 is no effect and 100 is complete control; read-out: Rice plant response rating
Summary of the method: as §2

[18] = system: sedge, umbrella (small-flower umbrella sedge, Cyperus difformis); experiment: Test B flooded paddy test; details: Cyperus difformis, 250 g ai/ha, Flood; 0 to 100 scale where 0 is no effect and 100 is complete control; read-out: Sedge, Umbrella plant response rating
Summary of the method: as §2

[19] = 125 g ai/ha, visual injury after approximately 10 d, 0 to 100 scale where 0 is no effect and 100 is complete control
[20] = 31 g ai/ha, visual injury after approx. 10 d, 0 to 100 scale, 0 no effect, 100 complete control

CN1CC[C@H](c2ccccc2C(F)(F)F)[C@@H](C(=O)Nc2cccc(F)c2F)C1=O [Compound 1009]
0%: pest or weed control at 31 g/ha (Kochia (Kochia scoparia) [1]; 31 g ai/ha, 0 to 100 scale where 0 is no effect and 100 is complete control, read-out: Kochia plant response rating) | pest or weed control at 125 g/ha (Kochia (Kochia scoparia) [1]; 125 g ai/ha, visual injury rating after approximately 10 d, read-out: Kochia plant response rating (0 to 100 scale, 0 is no effect, 100 is complete control)) | pest or weed control at 125 g/ha ([2]; 125 g ai/ha, visual injury rating after approximately 10 d, read-out: Barnyardgrass plant response rating (0 to 100 scale, 0 is no effect, 100 is complete control)) | pest or weed control at 31 g/ha ([2]; 31 g ai/ha, 0 to 100 scale (0 no effect, 100 complete control), read-out: Plant response rating, Barnyardgrass) | pest or weed control at 125 g/ha ([3]; 125 g ai/ha, visual injury rating after approximately 10 d, read-out: Foxtail, Giant plant response rating (0 to 100 scale, 0 is no effect, 100 is complete control)) | pest or weed control at 31 g/ha ([3]; 31 g ai/ha, 0 to 100 scale (0 no effect, 100 complete control), read-out: Plant response rating, Foxtail, Giant) | pest or weed control at 31 g/ha ([4]; 31 g ai/ha, 0 to 100 scale where 0 is no effect and 100 is complete control, read-out: Pigweed plant response rating) | pest or weed control at 125 g/ha ([4]; 125 g ai/ha, visual injury rating after approximately 10 d, read-out: Pigweed plant response rating (0 to 100 scale, 0 is no effect, 100 is complete control)) | pest or weed control at 31 g/ha ([5]; 31 g ai/ha, 0 to 100 scale where 0 is no effect and 100 is complete control, read-out: Ragweed plant response rating) | pest or weed control at 125 g/ha ([5]; 125 g ai/ha, visual injury rating after approximately 10 d, read-out: Ragweed plant response rating (0 to 100 scale, 0 is no effect, 100 is complete control)) | pest or weed control at 31 g/ha ([6]; 31 g ai/ha, 0 to 100 scale where 0 is no effect and 100 is complete control, read-out: Ryegrass, Italian plant response rating) | pest or weed control at 125 g/ha ([6]; 125 g ai/ha, visual injury rating after approximately 10 d, read-out: Ryegrass, Italian plant response rating (0 to 100 scale, 0 is no effect, 100 is complete control)) | pest or weed control at 125 g/ha [7, 19] | pest or weed control at 31 g/ha [7, 20] | pest or weed control at 125 g/ha (Kochia (Kochia scoparia) [8]; [19]) | pest or weed control at 31 g/ha (Kochia (Kochia scoparia) [8]; [20]) | pest or weed control at 125 g/ha [9, 19] | pest or weed control at 31 g/ha [9, 20] | pest or weed control at 125 g/ha [10, 19] | pest or weed control at 31 g/ha [10, 20] | Corn plant response rating (crop injury, 0 = no effect, 100 = complete kill) at 125 g/ha (corn (Zea mays); [19]) | Corn plant response rating (crop injury, 0 = no effect, 100 = complete kill) at 31 g/ha (corn (Zea mays); [20]) | pest or weed control at 125 g/ha [11, 19] | pest or weed control at 31 g/ha [11, 20] | pest or weed control at 125 g/ha [12, 19] | pest or weed control at 31 g/ha [12, 20] | pest or weed control at 125 g/ha [13, 19] | pest or weed control at 31 g/ha [13, 20] | pest or weed control at 125 g/ha [14, 19] | pest or weed control at 31 g/ha [14, 20] | plant injury at 125 g/ha [15, 19] | plant injury at 31 g/ha [15, 20] | pest or weed control at 250 g/ha [16] | pest or weed control at 250 g/ha [17] | pest or weed control at 250 g/ha (rice (Oryra sativa)) | pest or weed control at 250 g/ha [18]
